Data set [1] relates to KB (oral squamous cell carcinoma). The data set can be described thus: sulforhodamine B cell cytotoxicity assay, KB. The data set is classed as cell-based. Conditions: Homo sapiens; Table 2; SRB assay, 48 h of exposure. Here is the method:
(§1) The human cancer cell lines—KB (oral squamous cell carcinoma). C33A (cervical carcinoma), MCF-7 (breast adenocarcinoma), A549 (lung carcinoma) and mouse embryo fibroblast (NIH3T3) were obtained from American Type Culture Collection (ATCC), USA. These cells were grown in recommended media supplemented with 10% FBS, 50 μg/mL gentamycin and 2.5 μg/mL amphotericin B in a 5% CO2 humidified atmosphere at 37° C. Cells below 15 passage level were used for this study. A colorimetric sulforhodamine B assay was used for the measurement of cell cytotoxicity. 1×10^4 cells (in 180 μL) were added to each well of 96-well plate and incubated overnight to allow for cell attachment. Cells were then treated with serial two-fold dilutions of test compounds (100 to 1.6 μM) and untreated cells receiving the same volume of medium served as control. After 48 h of exposure, cells were fixed with ice-cold 50% TCA, stained with 0.4% (w/v) SRB in 1% acetic acid, washed and air dried. Bound dye was dissolved in 150 μL of 10 mM tris base. The plates were read at 540 nm absorbance on plate reader (Polarstar Galaxy, BMG, Germany). The cytotoxic effects of compounds were calculated as % inhibition in cell growth as per the formula […].

Data set [2] concerns C33A (cervical carcinoma). The data set can be described thus: sulforhodamine B cell cytotoxicity assay, C33A. The format is cell-based, human. Conditions: Homo sapiens, C-33-A, SRB assay, 48 h of exposure. Here is the method: as §1
Data set [3] relates to MCF-7 (breast adenocarcinoma). Nature of the data set: sulforhodamine B cell cytotoxicity assay, MCF-7. The format is cell-based. Conditions: Homo sapiens, MCF7; Table 2; SRB assay, 48 h of exposure. Here is the method:
as §1
For orientation: Sulforhodamine B stains cellular protein and so reports cell mass.

In data set [4] the test system is A549 (lung carcinoma). Nature of the data set: sulforhodamine B cell cytotoxicity assay, A549. The format is cell-based. The conditions noted are these: Homo sapiens, Table 2, SRB assay, 48 h of exposure. The method, then: as §1
Data set [5] deals with HeLa Human cervical cancer cells. The data set can be described thus: human tumor xenograft in SCID mice, tumor growth. The data set is classed as in vivo. The conditions noted are these: ADR 2 mg/kg I.V. Q7dx3. Here is the method:
(§2) The in vivo efficacy studies were performed using human tumor xenografts in SCID mice. Human cervical cancer cells (HeLa) were injected subcutaneously (1×10^7 cells in 100 μl HBSS medium) on the right flank of each mouse. Tumor bearing mice were divided randomly into treatment groups and the treatment schedules began on day 7 of the xenograft. The test compound (S009-0131) was administered orally to each mouse at a daily dose of 100 mg/kg body weight, for 15 days. The standard anti-cancer drug Adriamycin (ADR) was used as ‘positive’ control and given to each mouse as an i.v. dose of 2 mg/kg body weight, Q7d×3 ([…]). The group of vehicle treated animals served as ‘negative’ control.
(§3) The tumor volume, body weight and signs of overt toxicity were monitored and recorded for the entire duration of the experiment (60 days). Tumor volumes were calculated using the formula (a×b2)/2, where a, b are two longest perpendicular diameters. Tumor growth was expressed in terms of relative tumor volume (RTV) which is the ratio of tumor volume on a particular day to the tumor volume on day 1 of the study. Tumor growth inhibition index (T/C) was calculated as follows: T/C=Average RTV of test group mice/Average RTV of control group mice.
(In general: In xenograft studies the graft and the host belong to different species.)

Data set [6] is described as follows: animal weight and overt toxicity in the xenograft study. The data set is classed as in vivo, SCID mice. Conditions: ADR 2 mg/kg I.V. Q7dx3. The method, then:
as §2, §3

For data set [7], the system named is mouse embryo fibroblast (NIH3T3). Nature of the data set: sulforhodamine B cell cytotoxicity assay, NIH3T3 non-cancer cells. The format is cell-based. The conditions noted are these: 48 h of exposure. Here is the method: as §1
The mark [8] stands for this setting: Table 2, read-out: IC50 C33A (Cervical).
Where [9] appears, read: Table 1, read-out: IC50 C33A (cervical cancer).
Setting [10] is: Table 1, SRB assay, read-out: IC50 NIH3T3 (mouse fibroblast).
Where [11] appears, read: Table 2, SRB assay, read-out: IC50 NIH3T3 (Non-cancer, fibroblast).

Where two headings read alike, the source gives them in different places.

As a reminder, the IC50 is the concentration that inhibits the measured activity by half. In the case of `COc1cccc2c1C(=O)c1c(O)c3c(c(O)c1C2=O)C[C@@](O)(C(=O)CO)C[C@@H]3O[C@H]1C[C@H](N)[C@H](O)[C@H](C)O1` [Doxorubicin, reference compound], the IC50 is 0.22 µM in data set [1], 0.82 µM in data set [2] (setting [8]), 0.61 µM in data set [3] and 0.52 µM in data set [4]. The “RTV (relative tumor volume)” value in data set [5] (day 1) was found to be 1; in data set [5] (day 5) it was 0.69; in data set [5] (day 9) it was 0.72; in data set [5] (day 12), 0.92; in data set [5] (day 15) it was 1.39; in data set [5] (day 19), 1.65. The “RTV (relative tumor volume)” value in data set [5] (day 22) is 3.52; in data set [5] (day 25), 3.84; in data set [5] (day 29), 4.60; in data set [5] (day 33), 4.69. Moreover, the “T/C (tumor growth inhibition index)” value in data set [5] (day 1) is 1; in data set [5] (day 5) it was 0.53; in data set [5] (day 9), 0.44; in data set [5] (day 12), 0.47; in data set [5] (day 15) it was 0.43; in data set [5] (day 19), 0.45. In addition, the “T/C (tumor growth inhibition index)” value is reported as 0.68 in data set [5] (day 22); 0.62 in data set [5] (day 25); 0.63 in data set [5] (day 29); 0.47 in data set [5] (day 33); 0.58 in data set [5] (day 37); 0.49 in data set [5] (day 41). Moreover, the “T/C (tumor growth inhibition index)” value in data set [5] (day 44) and in data set [5] (day 51) was 0.43 in each case. The “Average Animal weight” value in data set [6] (day 1) was 20.7 grams; in data set [6] (day 5), 20.9 grams; in data set [6] (day 9), 20.6 grams; in data set [6] (day 12), 20.3 grams; in data set [6] (day 15), 19.6 grams; in data set [6] (day 19) it was 18.3 grams. For the same compound, the “Average Animal weight” value in data set [6] (day 22) came out at 19.7 grams; in data set [6] (day 25), 19.9 grams; in data set [6] (day 29), 20.4 grams; in data set [6] (day 33), 20.6 grams; in data set [6] (day 37), 24.8 grams; in data set [6] (day 41), 21.8 grams. Also, the “Average Animal weight” value in data set [6] (day 44) stood at 22.1 grams; in data set [6] (day 51), 21.2 grams.

In the case of `CCC(C)c1cc(/C=C/C(=O)c2ccc(C)cc2)cc(C=O)c1O` (centres unmarked) [Example S008-0392, (E)-3-sec-butyl-2-hydroxy-5-(3-oxo-3-p-tolylprop-1-enyl)benzaldehyde], the IC50 was 10.2 µM in data set [2] (setting [9]) and 129 µM in data set [7] (setting [10]).

The melting point is the temperature of the solid-liquid transition. Consider `CCOC(=O)c1cc2cc(C=CC(=O)c3ccccc3)cc(C(C)CC)c2oc1=O` (centres unmarked) [Example S009-0132, Ethyl 8-sec-butyl-2-oxo-6-(3-oxo-3-phenylprop-1-enyl)-2H-chromene-3-carboxylate], for which the melting point lay in the range of 155 to 156 °C. Inhibition in data set [1] was half-maximal at 10.5 µM (IC50). For the same compound, in data set [2] (setting [8]), the IC50 turned out to be 8.12 µM. Moreover, in data set [3], it took 88.1 µM to reach half-maximal inhibition (IC50). Further, in data set [4], inhibition was half-maximal at 12.9 µM (IC50). Moreover, the IC50 in data set [7] (setting [11]) is greater than 150 µM.

In turn, `CCC(C)c1cc(C=CC(=O)c2ccccc2)cc2cc(C(=O)OC)c(=O)oc12` (centres unmarked) [Example S009-0133, Methyl 8-sec-butyl-2-oxo-6-(3-oxo-3-phenylprop-1-enyl)-2H-chromene-3-carboxylate] came in with a melting point of 139 to 140 °C. In data set [1], this compound returned an IC50 of 13.4 µM. Moreover, the IC50 in data set [2] (setting [8]) was found to be 6.28 µM. In addition, the half-maximal inhibitory concentration (IC50) in data set [3] stood at 11.4 µM. In data set [4], the half-maximal inhibitory concentration (IC50) is 10.7 µM. Also, the IC50 in data set [7] (setting [11]) is greater than 150 µM.

On to `CCOC(=O)c1cc2cc(C=CC(=O)c3ccc(Cl)cc3)cc(C(C)CC)c2oc1=O` (centres unmarked) [Example S009-0135, Ethyl 8-sec-butyl-6-(3-(4-chlorophenyl)-3-oxoprop-1-enyl)-2-oxo-2H-chromene-3-carboxylate], for which the IC50 in data set [1] is 14.3 µM; in data set [2] (setting [8]), 4.54 µM; in data set [3], 11.1 µM; in data set [4], 12.8 µM; in data set [7] (setting [11]) it was 38.4 µM.

With `CCC(C)c1cc(C=CC(=O)c2ccc(Cl)cc2)cc2cc(C(=O)OC)c(=O)oc12` (centres unmarked) [Example S009-0136, Methyl 8-sec-butyl-6-(3-(4-chlorophenyl)-3-oxoprop-1-enyl)-2-oxo-2H-chromene-3-carboxylate], the melting point was in the range of 145 to 146 °C. In data set [1], this compound registered a half-maximal inhibitory concentration (IC50) of 28.2 µM. Also, the IC50 in data set [2] (setting [8]) is 5.9 µM. The compound also gave an IC50 in data set [3] of 10.8 µM. This compound returned an IC50 in data set [4] of 16.7 µM. Moreover, the IC50 in data set [7] (setting [11]) is 42.4 µM.

On to `CCOC(=O)c1cc2cc(C=O)cc(C(C)CC)c2oc1=O` (centres unmarked) [Example S009-0139, Ethyl 8-sec-butyl-6-formyl-2-oxo-2H-chromene-3-carboxylate], for which the melting point was 89 to 90 °C. Further, in data set [1], the IC50 was 132 µM. For the same compound, the IC50 in data set [2] (setting [9]) was determined as 64.3 µM. The IC50 in data set [2] (setting [8]) was found to be 64.3 µM. For the same compound, in data set [3], the IC50 is 113 µM. Besides, the IC50 in data set [4] came to 147 µM. In addition, the IC50 in data set [7] (setting [10]) is greater than 150 µM. For the same compound, the IC50 in data set [7] (setting [11]) is greater than 150 µM.

Consider `CCN(CC)C(=O)c1cc2cc(/C=C/C(=O)c3ccc(C)cc3)cc(C(C)(C)C)c2oc1=O` [Example S010-1992, (E)-8-tert-butyl-N,N-diethyl-2-oxo-6-(3-oxo-3-p-tolylprop-1-enyl)-2H-chromene-3-carboxamide], for which the melting point lay in the range of 170 to 171 °C. Also, the IC50 in data set [1] amounted to 2.02 µM. Moreover, the IC50 in data set [2] (setting [8]) was determined as 1.53 µM. For the same compound, in data set [3], the 50% inhibitory concentration (IC50) is less than 7.01 µM. Also, the IC50 in data set [4] was found to be 1.5 µM. Moreover, the IC50 in data set [7] (setting [11]) was greater than 150 µM.

Compound `CCC(C)c1cc(/C=C/C(=O)c2ccc(C)cc2)cc2cc(C(=O)NC)c(=O)oc12` (centres unmarked) [Example S010-1994, (E)-8-sec-butyl-N-methyl-2-oxo-6-(3-oxo-3-p-tolylprop-1-enyl)-2H-chromene-3-carboxamide] yielded a melting point of 215 to 216 °C.

Turning to `CCNC(=O)c1cc2cc(/C=C/C(=O)c3ccc(C)cc3)cc(C(C)CC)c2oc1=O` (centres unmarked) [Example S010-1995, (E)-8-sec-butyl-N-ethyl-2-oxo-6-(3-oxo-3-p-tolylprop-1-enyl)-2H-chromene-3-carboxamide], the melting point was in the range of 162 to 163 °C. In data set [1], this compound showed an IC50 of 10.7 µM. For the same compound, the IC50 in data set [2] (setting [8]) turned out to be 5.56 µM. The compound also yielded an IC50 in data set [3] of 22.2 µM. The compound further displayed an IC50 in data set [4] greater than 150 µM. For the same compound, in data set [7] (setting [11]), the IC50 is greater than 150 µM.

For the compound `CCC(C)c1cc(/C=C/C(=O)c2ccc(C)cc2)cc2cc(C(=O)N(CC)CC)c(=O)oc12` (centres unmarked) [Example S010-1996, (E)-8-sec-butyl-N,N-diethyl-2-oxo-6-(3-oxo-3-p-tolylprop-1-enyl)-2H-chromene-3-carboxamide], the melting point is 146 to 147 °C. The IC50 in data set [1] worked out at 3.55 µM. Further, the IC50 in data set [2] (setting [8]) was determined as 3.12 µM. The compound further yielded an IC50 in data set [3] of less than 7.01 µM. The compound also registered an IC50 in data set [4] of 3.77 µM. Besides, the IC50 in data set [7] (setting [11]) is greater than 150 µM.

In turn, `Cc1ccc(C(=O)/C=C/c2cc(C(C)(C)C)c3oc(=O)c(C(=O)O)cc3c2)cc1` [Example-9, (E)-8-tert-butyl-2-oxo-6-(3-oxo-3-p-tolylprop-1-enyl)-2H-chromene-3-carboxylic Acid] showed a melting point of 185 to 186 °C.

Values taken from patent US8815940B2, “Coumarin-chalcones as anticancer agents” (Council of Scientific & Industrial Research, priority 2010, dated 2014).
